This is an account of results in patent US8722661B2, “Pyrrolopyrimidone and pyrrolopyridone inhibitors of tankyrase” (Genentech, Inc., priority 2012, dated 2014).

One assay has as its target T1, Tankyrase 1 (TNKS1) (Homo sapiens, UniProt O95271).
T1 construct: construct: 1088-1327, 1266M
The experiment in a line: μHTS-TNKS-IWR2 TR-FRET binding assay (TNKS1). As for the experimental part:
(§1) μHTS-TNKS-IWR2TR-FRET Binding Assay
(§2) (10 μL/well in BD1536-well plate, a single point)
Reagents and Stock Solutions
(§3) Biotin-IWR2: 10 mM Biotin-IWR2 stock in DMSO, stored at −20° C.
Assay buffer 1a (AB 1a) for TNKS dilution: 50 mM Tris, pH 7.4, 100 mM sodium chloride solution, 1 mM magnesium chloride solution, 1 mM DL-dithiothreitol solution, 0.2 mg/mL bovine serum albumin solution, 0.025% NP-40.
Assay buffer 1b (AB 1b) for Biotin-IWR2 dilution: 50 mM Tris, pH 7.4, 100 mM sodium chloride solution, 1 mM magnesium chloride solution, 1 mM DL-dithiothreitol solution, 0.2 mg/mL bovine serum albumin solution, 0.05% NP-40
Assay buffer 1c (AB 1c) for compound dilution: 50 mM Tris, pH 7.4, 100 mM sodium chloride solution, 1 mM magnesium chloride solution, 1 mM DL-dithiothreitol solution, 0.2 mg/mL bovine serum albumin solution
Assay buffer 2 (AB2) for Eu/APC: 50 mM Tris, pH 7.4, 100 mM sodium chloride solution, 1 mM magnesium chloride solution, 0.2 mg/mL bovine serum albumin solution
Reagent Stock Solution Preparation
Prepare BLANK well stock solution: 5% DMSO/AB1b buffer
Prepare TNKS1 stock solution (5× stock): 300 nM TNKS in AB1a buffer
(§4) Transfer 3 μL/well above solution (solution 1,2,3) to an empty assay plate (BD1536-well plate) as follows:
TOTL and cpd wells: Solution 1 (Biotin-IWR2):
BLNK wells: Solution 2 (No Biotin-IWR2):
POSITIVE CONTROL wells: Solution 3 (Biotin-IWR2+XAV939)
(§5) Transfer 3 μL/well of the above diluted compound solutions or compound dilution buffer to the above assay plate.
(§6) Add 2 μL/well of 300 nM TNKS stock solution (4) to every well in the above assay plate.
Centrifuge the assay plate at 2100 rpm for 2 minutes.
(§7) Incubate the assay plate at 26° C. for 30 minutes.
(§8) Incubate the assay plate at 26° C. for 60 minutes.
In general terms: In TR-FRET formats the signal depends on donor and acceptor labels being close together.

The next assay concerns the target T2, tankyrase 2 (His6-TNKS2) (Homo sapiens, UniProt Q9H2K2).
T2 construct: His6-tankyrase 2 (construct: 934-1166)
The assay is described as follows: μHTS-TNKS-IWR2 TR-FRET binding assay with His6-TNKS2 in place of TNKS1. Conditions: Table I. Here is the method: as §1, §2
(§9) Alternatively, in place of His6-TNKS1 can use either His6-tankyrase 2 (construct: 934-1166) (His6-TNKS2) or His6-PARP1 (full length).
as §3
Positive control: 10 mM XAV 939 in DMSO, stored at −20° C.
(§10) Prepare Biotinylated IWR2 stock solution (3.33× stock) for TOTL and cpd wells: 200 nM Biotin-IWR2 in 5% DMSO/AB1b buffer
(§11) Prepare POSITIVE CONTROL well stock solution (3.33× stock): 200 nM XAV939 in 200 nM Biotin-IWR2/5% DMSO/AB1b buffer
(§12) (Alternatively, use TNKS2 or PARP1 stock solutions.)
(§13) Prepare Eu/APC stock solution (5× stock): 3.5 nM Eu-SA/50 nM APC-His6Ab in AB2 buffer
(§14) Add 25 μL/well 1.5% DMSO/AB1c buffer in each compound well to the compound concentration at 74 μM in 8.8% DMSO/AB1c buffer or in the 2 μL DMSO CONTROL wells (BLANK, TOTAL and POSITIVE wells) in the compound plate.
as §4, §5, §6, §7, §8
(§15) Read the assay plate immediately at excitation wavelength of 330 nm and emission wavelength of […] in time resolved fluorescence mode.
(§16) Representative compound data for assays are listed below in Table I. Values are in uM.

For assay [1], the target named is T3, PARP1 (His6-PARP1, full length) (Homo sapiens, UniProt P09874).
T3 construct: His6-PARP1 (full length)
The assay is described as follows: μHTS-TNKS-IWR2 TR-FRET binding assay with His6-PARP1 in place of TNKS1. To be noted: Table I. Here is the method: as §1, §2, §9, §3
Positive control: 10 mM […] in DMSO, stored at −20° C.
as §10, §11, §12, §13, §14, §4, §5, §6, §7, §8, §15, §16

T2 sequence (Q9H2K2 934-1166): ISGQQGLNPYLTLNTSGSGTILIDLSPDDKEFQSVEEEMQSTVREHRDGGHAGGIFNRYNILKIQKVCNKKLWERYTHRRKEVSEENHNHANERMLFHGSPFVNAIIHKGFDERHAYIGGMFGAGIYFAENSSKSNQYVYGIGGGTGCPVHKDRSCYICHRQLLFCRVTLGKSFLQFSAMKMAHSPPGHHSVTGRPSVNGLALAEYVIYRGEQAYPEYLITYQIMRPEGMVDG
T1 sequence (O95271 1088-1327): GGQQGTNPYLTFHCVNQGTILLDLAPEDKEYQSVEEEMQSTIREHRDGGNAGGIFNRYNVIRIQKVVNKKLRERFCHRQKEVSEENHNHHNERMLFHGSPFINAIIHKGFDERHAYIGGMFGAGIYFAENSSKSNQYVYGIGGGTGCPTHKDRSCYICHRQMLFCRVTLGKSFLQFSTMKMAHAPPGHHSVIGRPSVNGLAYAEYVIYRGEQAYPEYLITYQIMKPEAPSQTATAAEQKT
T3 sequence (P09874 whole entry): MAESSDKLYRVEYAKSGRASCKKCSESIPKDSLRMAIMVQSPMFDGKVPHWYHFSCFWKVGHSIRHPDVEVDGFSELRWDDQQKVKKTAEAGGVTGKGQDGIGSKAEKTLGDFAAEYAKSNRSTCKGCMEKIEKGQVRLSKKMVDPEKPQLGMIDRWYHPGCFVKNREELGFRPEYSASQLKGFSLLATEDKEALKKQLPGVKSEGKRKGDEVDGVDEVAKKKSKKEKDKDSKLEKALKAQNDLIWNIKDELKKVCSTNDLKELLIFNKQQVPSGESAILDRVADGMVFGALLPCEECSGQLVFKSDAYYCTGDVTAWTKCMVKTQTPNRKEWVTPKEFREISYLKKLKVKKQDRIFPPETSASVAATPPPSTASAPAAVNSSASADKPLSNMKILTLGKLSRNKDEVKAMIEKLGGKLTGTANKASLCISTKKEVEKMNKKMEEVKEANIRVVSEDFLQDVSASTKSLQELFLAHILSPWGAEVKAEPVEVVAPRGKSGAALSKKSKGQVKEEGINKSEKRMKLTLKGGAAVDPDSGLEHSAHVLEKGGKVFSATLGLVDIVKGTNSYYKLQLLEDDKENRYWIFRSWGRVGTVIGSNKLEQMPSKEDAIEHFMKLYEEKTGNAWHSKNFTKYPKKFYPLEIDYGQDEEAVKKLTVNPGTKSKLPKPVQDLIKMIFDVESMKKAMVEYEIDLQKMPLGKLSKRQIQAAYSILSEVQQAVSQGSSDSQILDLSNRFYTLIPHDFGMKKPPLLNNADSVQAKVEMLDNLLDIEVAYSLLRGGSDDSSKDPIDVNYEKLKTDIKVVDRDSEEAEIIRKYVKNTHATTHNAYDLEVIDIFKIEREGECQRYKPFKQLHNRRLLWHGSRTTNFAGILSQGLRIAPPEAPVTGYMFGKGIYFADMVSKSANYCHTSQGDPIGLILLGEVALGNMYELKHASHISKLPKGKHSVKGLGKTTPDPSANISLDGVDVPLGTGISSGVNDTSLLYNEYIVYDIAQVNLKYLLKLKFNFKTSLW

Turning to `Cn1ccc2c(=O)[nH]c(-c3ccc(C(F)(F)F)cc3)cc21` [Example 45, 1-Methyl-6-(4-trifluoromethyl-phenyl)-1,5-dihydro-pyrrolo[3,2-c]pyridin-4-one], the IC50 (as a rule, the point on the concentration scale where inhibition reaches its midpoint) on Tankyrase 1 (TNKS1) came out at 40 nM; on tankyrase 2 (His6-TNKS2), 39 nM; in assay [1], 842 nM.
On the same counts, the results for `CCn1ccc2c(=O)[nH]c(-c3ccc(C(F)(F)F)cc3)cc21` [Example 46, 1-Ethyl-6-(4-trifluoromethyl-phenyl)-1,5-dihydro-pyrrolo[3,2-c]pyridin-4-one] are 123 nM, 132 nM and over 50000 nM.
On the same counts, the results for `Cn1cc(-c2cc3c(ccn3C)c(=O)[nH]2)cn1` [Example 47, 1-Methyl-6-(1-methyl-1H-pyrazol-4-yl)-1,5-dihydro-pyrrolo[3,2-c]pyridin-4-one] are 164 nM, 135 nM and 292 nM.
Turning to `Cn1ccc2c(=O)[nH]c(N3CCC(c4ccc(F)cc4)CC3)nc21` [Example 48, 2-[4-(4-Fluoro-phenyl)-piperidin-1-yl]-7-methyl-3,7-dihydro-pyrrolo[2,3-d]pyrimidin-4-one], the half-maximal inhibitory concentration (IC50) at Tankyrase 1 (TNKS1) was 43 nM; on tankyrase 2 (His6-TNKS2), 43 nM; in assay [1], 4700 nM.
As for `C=CCCn1ccc2c(=O)[nH]c(-c3ccc(C(F)(F)F)cc3)nc21` [Example 49, 7-But-3-enyl-2-(4-trifluoromethyl-phenyl)-3,7-dihydro-pyrrolo[2,3-d]pyrimidin-4-one], the figures for the half-inhibitory concentration (IC50) (at Tankyrase 1 (TNKS1); at tankyrase 2 (His6-TNKS2); in assay [1]) were 1280 nM, 1360 nM and over 50000 nM, respectively.
On the same counts, the results for `CCn1ccc2c(=O)[nH]c(-c3ccc(C(F)(F)F)cc3)nc21` [Example 50, 7-Ethyl-2-(4-trifluoromethyl-phenyl)-3,7-dihydro-pyrrolo[2,3-d]pyrimidin-4-one] are 176 nM, 163 nM and over 50000 nM.
In the same order, the values of `CCCn1ccc2c(=O)[nH]c(-c3ccc(C(F)(F)F)cc3)nc21` [Example 51, 7-Propyl-2-(4-trifluoromethyl-phenyl)-3,7-dihydro-pyrrolo[2,3-d]pyrimidin-4-one] are 535 nM, 640 nM and over 50000 nM.
In the same order, the values of `C=CCn1ccc2c(=O)[nH]c(-c3ccc(C(F)(F)F)cc3)nc21` [Example 52, 7-Allyl-2-(4-trifluoromethyl-phenyl)-3,7-dihydro-pyrrolo[2,3-d]pyrimidin-4-one] are 750 nM, 730 nM and over 50000 nM.
With `O=c1[nH]c(-c2ccc(C(F)(F)F)cc2)nc2c1ccn2CCC(O)CO` (stereo not drawn) [Example 53, 7-(3,4-Dihydroxy-butyl)-2-(4-trifluoromethyl-phenyl)-3,7-dihydro-pyrrolo[2,3-d]pyrimidin-4-one], the values for the IC50 (at Tankyrase 1 (TNKS1); on tankyrase 2 (His6-TNKS2); in assay [1]) were 240 nM, 168 nM and 2380 nM, respectively.
On the same counts, the results for `O=c1[nH]c(-c2ccc(C(F)(F)F)cc2)nc2c1ccn2CC(O)CO` (stereo not drawn) [Example 54, 7-(2,3-Dihydroxy-propyl)-2-(4-trifluoromethyl-phenyl)-3,7-dihydro-pyrrolo[2,3-d]pyrimidin-4-one] are 425 nM, 237 nM and 13500 nM.
Consider `CCNC(=O)c1ccc(N2CCN(c3nc4c(ccn4C)c(=O)[nH]3)CC2)cc1` [Example 55, N-Ethyl-4-[4-(7-methyl-4-oxo-4,7-dihydro-3H-pyrrolo[2,3-d]pyrimidin-2-yl)-piperazin-1-yl]-benzamide], for which the IC50 on Tankyrase 1 (TNKS1) turned out to be 37 nM; on tankyrase 2 (His6-TNKS2) it was 40 nM; in assay [1], 449 nM.
In the same order, the values of `Cn1ccc2c(=O)[nH]c(-n3cccn3)nc21` [Example 56, 7-Methyl-2-pyrazol-1-yl-3,7-dihydro-pyrrolo[2,3-d]pyrimidin-4-one] are 7800 nM, 9160 nM and over 50000 nM.
On the same counts, the results for `O=c1[nH]c(-c2ccc(C(F)(F)F)cc2)nc2c1ccn2CO` [Example 57, 7-Hydroxymethyl-2-(4-trifluoromethyl-phenyl)-3,7-dihydro-pyrrolo[2,3-d]pyrimidin-4-one] are 48 nM, 65 nM and 1880 nM.
On the same counts, the results for `Cn1ccc2c(=O)[nH]c(N3CC(C)(c4ccccc4)C3)nc21` [Example 58, 7-Methyl-2-(3-methyl-3-phenyl-azetidin-1-yl)-3,7-dihydro-pyrrolo[2,3-d]pyrimidin-4-one] are 108 nM, 100 nM and 1310 nM.
With `O=c1[nH]c(-c2ccc(C(F)(F)F)cc2)nc2c1ccn2C1CC1` [Example 59, 7-Cyclopropyl-2-(4-trifluoromethyl-phenyl)-3,7-dihydro-pyrrolo[2,3-d]pyrimidin-4-one], the half-inhibitory concentration (IC50) on Tankyrase 1 (TNKS1) is 545 nM; at tankyrase 2 (His6-TNKS2) it was 619 nM; in assay [1], over 50000 nM.
In the same order, the values of `O=c1[nH]c(N2CCN(c3ccccc3F)CC2)nc2c1ccn2CO` [Example 60, 2-[4-(2-Fluoro-phenyl)-piperazin-1-yl]-7-hydroxymethyl-3,7-dihydro-pyrrolo[2,3-d]pyrimidin-4-one] are 33 nM, 55 nM and 10600 nM.
On the same counts, the results for `O=c1[nH]c(N2CCN(c3c(F)cccc3F)CC2)nc2c1ccn2CC(O)CO` (stereo not drawn) [Example 61, 2-(4-(2,6-difluorophenyl)piperazin-1-yl)-7-(2,3-dihydroxypropyl)-3H-pyrrolo[2,3-d]pyrimidin-4(7H)-one] are 34 nM, 28 nM and 14800 nM.
With `Cn1ccc2c(=O)[nH]c(-c3ccccc3)nc21` [Example 62, 7-Methyl-2-phenyl-3,7-dihydro-pyrrolo[2,3-d]pyrimidin-4-one], the figures for the half-maximal inhibitory concentration (IC50) (at Tankyrase 1 (TNKS1); at tankyrase 2 (His6-TNKS2); in assay [1]) were 117 nM, 154 nM and 3920 nM, respectively.
